Assay results as given in PMC6811539, “Minute-scale persistence of a GPCR conformation state triggered by non-cognate G protein interactions primes signaling” (Nature Communications, 2019).

How the values were obtained:
[1] = extent of photocleavage of PC-Qp by MALDI-MS; assay type: physicochemical; set-up: Conc. App: unit: μM; conditions: for concentration of full-length PC-Qp: 50 μM input, native membranes, MALDI-MS, mean of three experiments; for Conc. App: PC-Qp full length; for PC-Qp full length (fraction, MALDI-MS): plus UV (350 nm, 2 min)
Description: Native membranes were prepared from cells expressing β2-mCer and were stored in sucrose-supplemented buffer A as described above (Membrane preparations). […]. Both samples were centrifuged 100,000 × g, 5 min, 4 °C to sediment the membrane. Supernatants were stored on ice for analysis by MS. Control samples containing 50 μM peptide in the buffer were also prepared.
Prior to matrix-assisted laser desorption and ionization time-of-flight MS (MALDI-TOF MS) analysis, the samples were desalted using C18 ZipTips (Millipore Corporation, Billerica, MA). The manufacturer’s standard protocol for peptide clean-up was followed. After elution from the ZipTip, 1 μL of each sample was spotted on a MALDI-TOF 384 spot stainless-steel target (Bruker Daltonics, Billerica, MA) and mixed with 1 μl of α-cyano-4-hydroxy-cinnamic acid (α-CHCA) matrix (15 mg/ml α-CHCA in 50% acetonitrile). Each spot was allowed to dry at room temperature. The target was placed in a Bruker Autoflex Speed MALDI-TOF mass spectrometer (Bruker Daltonics, Billerica, MA) equipped with a Nd-YAG 355 nm pulsed laser. The data were collected in reflectron mode, positive polarity, with an accelerating potential of 19 kV. Each spectrum was the accumulation of 4000 laser shots with complete spot raster of the laser during data collection. External calibration was performed using 0.5 μl α-CHCA and 0.5 μl of peptide standard (part# 206195, Bruker Daltonics, Billerica, MA) with Angiotensin II (monoisotopic mass [MH^+ ] 1046.5418), Angiotensin I (monoisotopic mass [MH^+ ] 1296.6848), SubstanceP (monoisotopic mass [MH^+] 1347.7354), Bombesin (monoisotopic mass [MH^+] 1619.8223), ACTH clip 1–17 (monoisotopic mass [MH^+] 2093.0862), ACTH clip 18–39 (monoisotopic mass [MH^+] 2465.1983), and Somatostatin 28 (monoisotopic mass [MH^+] 3147.4710). The Bruker data files were converted to mzXML files using MSConvertGUI tool in ProteoWizard open-source software. The mzXML files were viewed and analyzed with mMass v5.5 open-source software.

[2] = target: T1, β2-AR-mCherry, endogenous Gs (Homo sapiens, UniProt P07550); experiment: activation of endogenous Gs (BODIPY-FL-GTPγS), native membranes expressing β2-AR-mCherry; assay type: biochemical
T1 construct: expressed in transfected cells; host or cells: native (not urea-stripped) membranes of HEK293T cells transiently transfected with β2-AR-mCherry
Description: Membranes were prepared following a published protocol[56] from HEK293T cells transiently transfected with the appropriate DNA (β2-AR-mCherry, β2-mCerulean, […]-mCherry, β2-AR-ICL3 or β2-AR-Sp). Cells were collected in culture medium and washed twice with PBS by centrifugation (300 × g, 3 min, ambient temperature). […] Cells in solution A were lysed gently (30 strokes) in a chilled Dounce homogenizer in the presence of 1.5 μg/mL aprotinin, 1.5 μg/mL leupeptin, 5 μg/mL phenylmethylsulfonyl fluoride (PMSF) and 1 mM dithiothreitol (DTT). Nuclei and intact cells were eliminated by centrifugation at 1000 × g, 5 min, 4 °C. All subsequent centrifugation steps were performed in a TLA100.4 rotor at 135,000 × g, 30 min, 4 °C. […] HEK293T cells in 15 cm dishes were transiently transfected with β2-AR-mCherry or […]-mCherry plasmid as described in the section on “Cells, Cell culture and Transfections,” earlier. Membranes were isolated and treated with urea as detailed (Membrane preparations). Urea treatment denatures and inactivates the endogenous G proteins, allowing the reconstitution of desired combinations of Gα, and βγ subunits and specific C terminus peptides. Reconstitution reactions were assembled on ice. […] The agonist-stimulated change in fluorescence counts was calculated by subtracting the early stimulation spectra from the post-stimulation spectra. Samples treated with BODIPY buffer (no agonist) were processed similarly, to determine the increase in BODIPY fluorescence without agonist stimulation, which represented nonspecific and basal incorporation of the BODIPY in the reaction time. Specific, agonist-induced change in BODIPY fluorescence was calculated by subtracting the increase in buffer-treated samples from the agonist-mediated increase. This change in fluorescence (increase) provided a measure of BODIPY-FL-GTPγS incorporation into the Gα-subunit. Each reaction provided three agonist and three mock readings. […] BODIPY incorporation was monitored as above. […] The experiment was repeated with mock buffer and agonist-specific G-protein activation was calculated.

[3] = +UV (second block), replicate #1
[4] = +UV (second block), replicate #2
[5] = +UV (second block), replicate #3
[6] = −UV (first block), replicate #1
[7] = −UV (first block), replicate #2
[8] = −UV (first block), replicate #3

Which results are given for “DTENIRFVFAAVKDTILQLNLKE(Anp)NLV [PC-Qp, photocleavable Qp, Y356 replaced by Anp]”?
concentration of full-length PC-Qp ([1]; +UV (350 nm, 2 min)): 4.582 µM; % cleavage [1, 3]: 90.1408%; % uncleaved [1, 3]: 9.859%; % cleavage [1, 4]: 90.4762%; % uncleaved [1, 4]: 9.524%; % cleavage [1, 5]: 91.8919%; % uncleaved [1, 5]: 8.108%; Conc. App [1, 3]: 4.93; Conc. App [1, 4]: 4.7619; Conc. App [1, 5]: 4.054; Conc. App [1, 6]: 33.3333; Conc. App [1, 7]: 37.7551; Conc. App [1, 8]: 30.7692; PC-Qp full length (fraction, MALDI-MS) ([1]; replicate 1): 0.098; PC-Qp full length (fraction, MALDI-MS) ([1]; replicate 2): 0.095; PC-Qp full length (fraction, MALDI-MS) ([1]; replicate 3): 0.081; % cleavage [1, 6]: 33.3333%; % uncleaved [1, 6]: 66.6667%; % cleavage [1, 7]: 24.4898%; % uncleaved [1, 7]: 75.5102%; % cleavage [1, 8]: 38.4615%; % uncleaved [1, 8]: 61.5385%; concentration of full-length PC-Qp ([1]; −UV): 33.9526 µM; primed G-protein activation response after UV before mixing ([2]; PC-Qp exposed to UV before mixing with other reactants): lost; persistence of enhanced G-protein activation after photocleavage ([2]; PC-Qp, UV after addition to membranes): 120 s; increase in G-protein activation in response to fenoterol ([2]; fenoterol 10 μM, 3 min, Qp 30 μM or PC-Qp 50 μM, no UV): ~ 7 fold
